We go through 15 molecules from patent publication US5463118A, “N-(l-aspartyl)amino alcohol derivative and sweetener containing the same” (Takasago International Corporation, priority 1987, dated 1995).

A short description of series [1]: sweetness characteristics in standard cola beverage, nine panelists. To be noted: cola beverage stored at 37° C. for 26 days, 1 extremely poor to 9 extremely excellent, sweetener at 30 to 520 ppm. On the procedure: The sweetness characteristics were evaluated in the following manner.
A standard beverage was prepared by adding the following materials to 1600 ml of carbonated water:
Various sweeteners were added to the standard beverage each at a definite concentration. The beverages thus obtained were stored at 37° C. for 26 days and then evaluated by nine panelists according to the following criterion.

Series [2] in a line: degree of sweetness based on sucrose of compounds of differing absolute configuration. To be noted: for Degree of sweetness based on sucrose: Table 2. The procedure:
Compounds of absolute configurations (a) and (b) of (RS,RS) and (S,S) were prepared by way of trial, and the degrees and characteristics of sweetness thereof were evaluated.

For series [3] the following is noted: versus APM; cited from earlier work.
The conditions of series [4]: among dipeptide esters known so far; cited from earlier work.
A short description of series [5]: stability of aqueous solution (percent remaining by HPLC, 0.1M phosphate buffer pH 4.0, 80° C.). Type of series: physicochemical. Particulars: general statement. On the procedure:
Each of compounds A and B, APM and L-aspartyl-DL-aminomalonic acid methyl fenchyl ester as disclosed in JP-A-49-30566, which will be abbreviated as "AMF" hereinafter, was dissolved in a 0.1M phosphate buffer solution (pH 4.0) at a concentration of 0.2%. The obtained solution was maintained at 80° C. and the percent remaining was monitored by high performance liquid chromatography with a lapse of time to thereby compare the stabilities of these solutions with each other.

The nature of another series: solubility in water. The series is classed as physicochemical.
A short description of series [6]: sweetness characteristics of diluted aqueous solution.
The nature of series [7]: degree of sweetness of L-aspartyl fenchyl amino alcohols by absolute configuration at (a) and (b). Particulars: for Degree of sweetness: R1 methyl, R2 fenchyl, absolute configuration (a),(b). The procedure: Subsequent studies by the inventors have disclosed that the sweetness essentially depends on the absolute configuration at the (a) and (b) positions in the following formula (i). For example, compounds of the following general formula: [drawing 1]
wherein R1 is methyl group while R2 is fenchyl group:
The absolute configurations at the (a) and (b) positions are determined by resolving amino alcohol derivatives with tartaric acid to thereby give p-bromobenzoic acid amide derivatives of the following formula (ii) and then analyzing the crystal structures thereof with X-rays: [drawing 2]

Series [8] is described as follows: taste intensity threshold value by a limit method, panel of five skilled flavorists. Particulars: for Taste intensity threshold value: dissolved in water, limit method, five skilled flavorists; for Degree of sweetness: sucrose = 1, from Table 1. The procedure:
Each of (2R,3R)-3-N-(L-aspartyl)amino-1-2-butanol (XVI') obtained in Example 2, 2-8), which will be referred to as "compound A" hereinafter, the (2R,3R)-3-N-(L-aspartyl)amino-1-2-butanol (XVII) obtained in Example 1, 1-15), which will be referred to as "compound B" hereinafter, APM and sucrose was dissolved in water. The threshold value of each compound was determined by a limit method by a panel consisting of five skilled flavorists.

Molecules are shown by their SMILES. Where two headings read alike, the source gives them in different places. Where a SMILES comes first, the peptide text is derived from it.

As to `CC(NC(=O)[C@@H](N)CC(=O)O)C(O)C[C@@H]1C[C@@H]2CC[C@@]1(C)C2` (stereo partly shown), the Average score in [1] came out at 5.1. Besides, in series [2], the “Degree of sweetness based on sucrose” value was 800 time.
For `CC(NC(=O)[C@@H](N)CC(=O)O)C(O)C[C@@H]1[C@@H]2CC[C@@H](C2)[C@H]1C` (stereo partly shown) the same measures were 5.0 and 850 time.
Regarding `COC(=O)C(NC(=O)[C@@H](N)CC(=O)O)C(=O)OC1C2(C)CCC(C2)C1(C)C` (mixture of isomers) [AMF, L-aspartyl-DL-aminomalonic acid methyl fenchyl ester], the “stability at 80° C. and at a pH of 4” value in series [3] was “inferior to APM in stability at 80 °C and at a pH of 4”. For the same molecule, the “degree of sweetness, in words” value in series [4] is listed as “highest degree of sweetness”.
Turning to `C[C@@H](NC(=O)[C@@H](N)CC(=O)O)[C@H](O)CC1CC2CCC1(C)C2` (stereo partly drawn) [(2R,3R)-3-N-(L-aspartyl)amino-1-(1-methyl-2-norbornyl)-2-butanol], in [5], the heat stability result is “good in heat stability” and the “stability in acidic aqueous solutions” value is reported as “excellent in stability in acidic aqueous solutions”. Also, the solubility in water entry in the series “solubility in water” is “highly soluble in water”. For the same molecule, in series [6], the “disagreeable tastes (bitter taste, bad taste, unpleasant aftertaste)” value was “almost no disagreeable tastes” and the sweetness characteristics entry is “closely similar to those of sucrose”.
For `CC1C2CCC(C2)C1C[C@@H](O)[C@@H](C)NC(=O)[C@@H](N)CC(=O)O` (stereo partly drawn) [(2R,3R)-3-N-(L-aspartyl)amino-1-(3-methyl-2-norbornyl)-2-butanol] the same measures were “good in heat stability”, “excellent in stability in acidic aqueous solutions”, “highly soluble in water”, “almost no disagreeable tastes” and “closely similar to those of sucrose”.
In the case of `C[C@@H]1[C@H]2CC[C@H](C2)[C@H]1C[C@H](O)[C@H](C)NC(=O)[C@@H](N)CC(=O)O` [(2S, 3S)-3-N-(L-aspartyl)amino-1-2-butanol], in series [2], the “sweetness, in words” value is on record as “scarcely any sweetness” and the “Degree of sweetness based on sucrose” value is listed as 0 time.
For the molecule `C[C@@H](NC(=O)[C@@H](N)CC(=O)O)[C@H](O)CC1C2(C)CCC(C2)C1(C)C` (stereo partly drawn) [(R,R)], in series [7], the “degree of sweetness, in words” value was “highest degree of sweetness” and the Degree of sweetness is 12,500.
For `C[C@@H](NC(=O)[C@@H](N)CC(=O)O)[C@@H](O)CC1C2(C)CCC(C2)C1(C)C` (stereo partly drawn) [(R,S)] the same measures were “scarcely any sweetness” and 0.
For `C[C@H](NC(=O)[C@@H](N)CC(=O)O)[C@H](O)CC1C2(C)CCC(C2)C1(C)C` (stereo partly drawn) [(S,R)] the same measures were “scarcely any sweetness” and 0.
With `C[C@H](NC(=O)[C@@H](N)CC(=O)O)[C@@H](O)CC1C2(C)CCC(C2)C1(C)C` (stereo partly drawn) [(S,S)], in series [7], the “degree of sweetness, in words” value is “scarcely any sweetness” and the Degree of sweetness was found to be 0.
Regarding `COC(=O)[C@H](Cc1ccccc1)NC(=O)[C@@H](N)CC(=O)O` [APM, L-aspartyl-L-phenylalanine methyl ester, reference compound] (H-Asp-Phe-OMe), in series [8], the “Taste intensity threshold value” was found to be 0.004% and the Degree of sweetness is 150 time. Also, the Average score in [1] came out at 5.8. The “Degree of sweetness based on sucrose” value in series [2] is listed as 250 time.
`CC(NC(=O)[C@@H](N)CC(=O)O)C(O)C[C@@H]1C(C)(C)[C@@H]2CC[C@@]1(C)C2` (stereo partly drawn) [C, 3-N-(L-aspartyl)-amino-1-d-α-fenchyl-2-butanol]: in [7], the Degree of sweetness is 1,800. The molecule further came in with an Average score in [1] of 4.1. The “Degree of sweetness based on sucrose” value in series [2] was 1,800 time.
Turning to `C[C@@H]1[C@H]2CC[C@H](C2)[C@H]1C[C@@H](O)[C@@H](C)NC(=O)[C@@H](N)CC(=O)O` [Compound A, (2R,3R)-3-N-(L-aspartyl)amino-1-2-butanol], in series [8], the “Taste intensity threshold value” was found to be 0.00024% and the Degree of sweetness is listed as 2,500 time. The same molecule came in with an Average score in series [1] of 6.2. In addition, the “Degree of sweetness based on sucrose” value in series [2] is given as 2,500 time.
As to `C[C@@H](NC(=O)[C@@H](N)CC(=O)O)[C@H](O)C[C@@H]1C[C@@H]2CC[C@@]1(C)C2` [Compound B, (2R,3R)-3-N-(L-aspartyl)amino-1-2-butanol], in [8], the “Taste intensity threshold value” came out at 0.00018% and the Degree of sweetness was 3,300 time. This molecule also returned an Average score in series [1] of 6.3. The “Degree of sweetness based on sucrose” value in series [2] was 3,300 time.
`OC[C@H]1O[C@@](CO)(O[C@H]2O[C@H](CO)[C@@H](O)[C@H](O)[C@H]2O)[C@@H](O)[C@@H]1O` [Sucrose, sucrose, reference compound]: in series [8], the “Taste intensity threshold value” came to 0.6% and the Degree of sweetness came out at 1 time.
